Results on eight compounds are retold here after patent US10143681B2, “Factor XIa inhibitors” (MERCK SHARP & DOHME CORP., priority 2016, dated 2018).

The subject of assay [1] is Human plasma (intrinsic coagulation cascade). Nature of the assay: Activated Partial Thromboplastin Time (aPTT) Assay. The settings on record: concentration that causes a 50% (1.5×) increase of clot time over vehicle. In outline: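 Inhibitors spiked into pooled citrated normal-donor human plasma (aPTT 28-40 seconds), run on automated coagulation analyzer: ellagic acid activation of Factor XII, then clot time after recalcification. Reported as concentration giving 50% (1.5×) prolongation over vehicle clot time.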

Assay [2] has as its target Human plasma kallikrein (Homo sapiens (Human), UniProt P03952). In words: Kallikrein Assay. The class given is biochemical. Particulars: purified Human plasma kallikrein 0.5 nM, substrate Acetyl-K-P-R-AFC; read-out: P. KLK IC50. On the procedure: The effectiveness of a compound of the present invention as an inhibitor of Kallikrein can be determined using a relevant purified serine protease, and an appropriate synthetic substrate. The rate of hydrolysis of the chromogenic or fluorogenic substrate by the relevant serine protease was measured both in the absence and presence of compounds of the present invention. Assays were conducted at room temperature or at 37° C. […] A decrease in the rate of fluorescence change in the presence of inhibitor is indicative of enzyme inhibition. Such methods are known to one skilled in the art. The results of this assay are expressed as the half-maximal inhibitory concentrations (IC50), or the inhibitory constant, Ki.
Kallikrein determinations were made in 50 mM HEPES buffer at pH 7.4 containing 150 mM NaCl, 5 mM CaCl2, and 0.1% PEG 8000 (polyethylene glycol; Fisher Scientific). Determinations were made using purified Human plasma kallikrein at a final concentration of 0.5 nM (Enzyme Research Laboratories) and the synthetic substrate, Acetyl-K-P-R-AFC (Sigma # C6608) at a concentration of […].
Times required to achieve equilibration between enzyme and inhibitor were determined in control experiments. The reactions were performed under linear progress curve conditions and fluorescence increase measured at 405 Ex/510 Em nm. […] IC50 was determined by inflection point from a four parameter logistic curve fit. Ki was calculated using the Cheng Prusoff equation, Ki=IC50/(1+([S]/Km)).

Assay [3] concerns the target human Factor XIa (Homo sapiens (Human), UniProt P03951). In words: Factor XIa Assay. The class given is biochemical. Particulars: human Factor XIa 0.04 nM, 30 min pre-incubation at 25° C., substrate GPR-AFC; read-out: FXIa IC50. The essentials: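 IC50 values were obtained from four-parameter log(inhibitor)-response fits of % inhibition, then converted to Ki using Cheng-Prusoff. GPR-AFC hydrolysis was read at 400/505 nm after 60 min at 25 °C.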

Human plasma kallikrein, sequence (P03952 391-638): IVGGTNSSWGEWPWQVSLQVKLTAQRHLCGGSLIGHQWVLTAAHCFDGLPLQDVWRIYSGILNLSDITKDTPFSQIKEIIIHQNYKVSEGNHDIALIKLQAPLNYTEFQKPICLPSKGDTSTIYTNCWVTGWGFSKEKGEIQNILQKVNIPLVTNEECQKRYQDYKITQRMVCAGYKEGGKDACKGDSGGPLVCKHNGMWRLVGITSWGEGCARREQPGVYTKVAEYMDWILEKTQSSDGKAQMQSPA
Human plasma kallikrein, sequence (P03952 20-390 partner): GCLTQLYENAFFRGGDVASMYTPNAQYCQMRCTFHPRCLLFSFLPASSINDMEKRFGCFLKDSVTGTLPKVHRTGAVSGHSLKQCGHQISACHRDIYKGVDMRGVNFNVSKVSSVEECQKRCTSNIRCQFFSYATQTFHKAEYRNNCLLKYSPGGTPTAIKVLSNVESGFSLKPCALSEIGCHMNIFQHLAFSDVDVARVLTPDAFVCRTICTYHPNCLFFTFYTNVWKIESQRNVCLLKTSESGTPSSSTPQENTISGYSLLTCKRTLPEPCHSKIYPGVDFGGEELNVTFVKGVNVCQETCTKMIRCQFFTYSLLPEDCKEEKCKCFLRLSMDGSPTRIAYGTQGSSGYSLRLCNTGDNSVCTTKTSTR
human Factor XIa, sequence (P03951 388-625): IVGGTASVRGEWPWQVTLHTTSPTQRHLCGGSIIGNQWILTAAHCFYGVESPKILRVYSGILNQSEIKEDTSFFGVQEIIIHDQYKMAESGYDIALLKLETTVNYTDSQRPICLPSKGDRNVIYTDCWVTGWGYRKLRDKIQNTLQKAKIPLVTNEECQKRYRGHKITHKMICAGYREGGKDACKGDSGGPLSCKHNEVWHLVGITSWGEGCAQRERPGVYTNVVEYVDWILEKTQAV
human Factor XIa, sequence (P03951 19-387 partner): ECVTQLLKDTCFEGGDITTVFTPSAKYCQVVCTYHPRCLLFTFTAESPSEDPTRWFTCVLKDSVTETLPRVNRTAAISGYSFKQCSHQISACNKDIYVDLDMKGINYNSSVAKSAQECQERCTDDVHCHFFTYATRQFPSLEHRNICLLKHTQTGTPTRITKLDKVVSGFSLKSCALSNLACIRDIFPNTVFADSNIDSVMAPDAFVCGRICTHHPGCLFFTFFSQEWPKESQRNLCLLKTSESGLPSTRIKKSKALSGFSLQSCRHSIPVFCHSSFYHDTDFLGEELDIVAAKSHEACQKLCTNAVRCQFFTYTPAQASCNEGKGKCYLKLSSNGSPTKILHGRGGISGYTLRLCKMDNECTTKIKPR

Broadly, the IC50 is the concentration that gives 50% inhibition. As for `N#CC1(CC(C(=O)Nc2ccc(C(=O)O)cc2)c2ccc(-c3c(C(F)(F)F)ccc(Cl)c3F)c[n+]2[O-])CC1` (racemic) [Example 30, 2-(1-((4-carboxyphenyl)amino)-3-(1-cyanocyclopropyl)-1-oxopropan-2-yl)-5-(3-chloro-2-fluoro-6-(trifluoromethyl)phenyl)pyridine 1-oxide], in assay [1], the “aPTT (1.5x)” value came out at 5.27 µM. Also, the IC50 in assay [2] came to 155 nM; in assay [3], 7.6 nM.

For the compound `N#CC1(CC(C(=O)Nc2ccc(C(=O)O)cc2)c2ccc(-c3c(C(F)F)ccc(Cl)c3F)c[n+]2[O-])CC1` (racemic) [Example 31, 2-(1-((4-carboxyphenyl)amino)-3-(1-cyanocyclopropyl)-1-oxopropan-2-yl)-5-(3-chloro-6-(difluoromethyl)-2-fluorophenyl)pyridine 1-oxide], the “aPTT (1.5x)” value in assay [1] is 0.88 µM. The IC50 in assay [2] was 31 nM; in assay [3] it was 3 nM.

Turning to `O=C(O)c1ccc(NC(=O)C(CC2CC2)c2ccc(-c3cc(Cl)ccc3OC(F)F)c[n+]2[O-])cc1` (single isomer, unassigned) [Example 7, (R)- or (S)-4-[(2-{5-[5-chloro-2-(difluoromethoxy)phenyl]-1-oxidopyridin-2-yl}-3-cyclopropylpropanoyl)amino] benzoic acid], the “aPTT (1.5x)” value in assay [1] came to 16.38 µM. The figures for the IC50 in assay [2] and in assay [3] were 265 nM and 7.6 nM, respectively.

For the compound `CCOc1ccc(Cl)c(F)c1-c1ccc(C(CC2CC2)C(=O)Nc2ccc(C(=O)O)cc2)[n+]([O-])c1` (single isomer, unassigned) [Example 9, (R)- or (S)-4-({2-[5-(3-chloro-6-ethoxy-2-fluorophenyl)-1-oxidopyridin-2-yl]-3-cyclopropylpropanoyl}amino) benzoic acid], the “aPTT (1.5x)” value in assay [1] is 13 µM. Besides, the figures for the IC50 in assay [2] and in assay [3] were 857 nM and 9 nM, respectively.

For the compound `O=C(O)c1ccc(NC(=O)C(CC2CCC2)c2ccc(-c3c(OC(F)F)ccc(Cl)c3F)c[n+]2[O-])cc1` (single isomer, unassigned) [Example 15, (R)- or (S)-4-[(2-{5-[3-chloro-6-(difluoromethoxy)-2-fluorophenyl]-1-oxidopyridin-2-yl}-3-cyclobutylpropanoyl)amino] benzoic acid], the “aPTT (1.5x)” value in assay [1] worked out at 0.75 µM. Besides, the IC50 in assay [2] came to 20 nM; in assay [3], 0.56 nM.

Regarding `O=C(O)c1ccc(NC(=O)C(CC2CCCC2)c2ccc(-c3c(OC(F)F)ccc(Cl)c3F)c[n+]2[O-])cc1` (single isomer, unassigned) [Example 19, (R)- or (S)-4-[(2-{5-[3-chloro-6-(difluoromethoxy)-2-fluorophenyl]-1-oxidopyridin-2-yl}-3-cyclopentylpropanoyl)amino] benzoic acid], the “aPTT (1.5x)” value in assay [1] is 1.3 µM. Besides, the IC50 in assay [2] worked out at 20 nM; in assay [3], 0.45 nM.

As for `O=C(O)c1ccc(NC(=O)C(CC2CC2)c2ccc(-c3cc(Cl)ccc3C(F)(F)F)c[n+]2[O-])cc1` (single isomer, unassigned) [Example 25, (R)- or (S)-2-(1-((4-carboxyphenyl)amino)-3-cyclopropyl-1-oxopropan-2-yl)-5-(5-chloro-2-(trifluoromethyl)phenyl)pyridine 1-oxide], the “aPTT (1.5x)” value in assay [1] turned out to be 10.28 µM. In addition, the IC50 in assay [2] was 756 nM; in assay [3] it was 16 nM.

For `O=C(O)c1ccc(NC(=O)C(CC2CC2)c2ccc(-c3c(C(F)(F)F)ccc(Cl)c3F)c[n+]2[O-])cc1` (single isomer, unassigned) [Example 27, (R)- or (S)-2-(1-((4-carboxyphenyl)amino)-3-cyclopropyl-1-oxopropan-2-yl)-5-(3-chloro-2-fluoro-6-(trifluoromethyl)phenyl)pyridine 1-oxide], in assay [1], the “aPTT (1.5x)” value is 2.68 µM. Moreover, the figures for the IC50 in assay [2] and in assay [3] were 162 nM and 2.8 nM, respectively.
